In experiment [1] the target is Epidermal Growth Factor Receptor (EGFR) (Homo sapiens (Human), UniProt P00533). The experiment can be described thus: EGFR kinase assay (TR-FRET). As to conditions: values given in μM; read-out: EGFR kinase inhibition IC50. In kind it is biochemical. In outline: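 EGFR purified from A431 cells was preincubated with compound 15 min at 22° C in pH 7.0 Hepes buffer with MgCl2, MnCl2 and vanadate before reaction with a biotinylated peptide. After EDTA stop, phosphopeptide was detected by TR-FRET (anti-phosphotyrosine Tb-cryptate, streptavidin-XL665) as the 665/620 nm emission ratio.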
On the technique in general: TR-FRET usually uses a lanthanide donor and a delayed reading to cut background.

Experiment [2] addresses K-Ras^G12C : hSOS1 interaction (Homo sapiens, UniProt Q07889). As to the kind of experiment: Biochemical assay 1: K-Ras^G12C interaction assay with hSOS1 (HTRF). Type of experiment: binding. As to conditions: read-out: Assay 1 (KRAS-SOS Interaction) activity expressed as IC50.

The values that follow come from US20240083857A1, “2-Methyl-Quinazolines” (Bayer Pharma Aktiengesellschaft, priority 2017, published 2024).

Chain of Epidermal Growth Factor Receptor (EGFR) (P00533 25-1210): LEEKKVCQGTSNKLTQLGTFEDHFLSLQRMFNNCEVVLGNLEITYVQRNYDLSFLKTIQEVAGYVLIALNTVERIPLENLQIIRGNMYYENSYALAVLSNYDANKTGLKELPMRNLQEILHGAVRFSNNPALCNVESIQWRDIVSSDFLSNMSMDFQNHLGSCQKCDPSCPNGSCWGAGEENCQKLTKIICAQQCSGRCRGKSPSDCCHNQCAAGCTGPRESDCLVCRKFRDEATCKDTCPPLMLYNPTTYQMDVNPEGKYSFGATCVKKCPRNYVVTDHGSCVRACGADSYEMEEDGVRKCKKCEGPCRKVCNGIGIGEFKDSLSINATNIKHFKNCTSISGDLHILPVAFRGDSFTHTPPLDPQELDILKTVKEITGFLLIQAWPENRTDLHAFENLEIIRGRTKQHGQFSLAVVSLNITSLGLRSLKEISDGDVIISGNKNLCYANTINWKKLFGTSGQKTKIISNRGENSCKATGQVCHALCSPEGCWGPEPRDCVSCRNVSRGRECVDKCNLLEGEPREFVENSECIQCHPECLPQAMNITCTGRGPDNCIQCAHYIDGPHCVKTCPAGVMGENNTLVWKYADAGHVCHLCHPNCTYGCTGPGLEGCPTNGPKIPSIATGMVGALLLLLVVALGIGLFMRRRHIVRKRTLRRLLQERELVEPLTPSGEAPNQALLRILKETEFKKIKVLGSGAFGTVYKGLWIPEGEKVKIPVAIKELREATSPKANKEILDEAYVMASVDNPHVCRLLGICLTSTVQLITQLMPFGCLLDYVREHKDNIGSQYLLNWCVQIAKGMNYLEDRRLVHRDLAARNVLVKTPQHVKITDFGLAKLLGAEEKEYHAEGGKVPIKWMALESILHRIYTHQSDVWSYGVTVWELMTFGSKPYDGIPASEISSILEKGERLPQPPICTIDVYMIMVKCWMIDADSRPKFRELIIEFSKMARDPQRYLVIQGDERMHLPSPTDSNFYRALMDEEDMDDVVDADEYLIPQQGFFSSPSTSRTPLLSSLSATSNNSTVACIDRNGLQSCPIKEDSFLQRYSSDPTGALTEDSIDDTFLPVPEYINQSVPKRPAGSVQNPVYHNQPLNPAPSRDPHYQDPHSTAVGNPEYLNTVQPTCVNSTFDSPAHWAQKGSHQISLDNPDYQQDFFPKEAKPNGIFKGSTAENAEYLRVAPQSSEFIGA

With `COc1cc2nc(C)nc(NC(C)c3ccc(-c4ccc(CN)cc4)s3)c2cc1OC` (centres unmarked) [Example 266, N-[1-{5-[4-(aminomethyl)phenyl]thiophen-2-yl}ethyl]-6,7-dimethoxy-2-methylquinazolin-4-amine], the IC50 in experiment [1] is above 20 µM; in experiment [2], 3.61 µM.

Consider `COc1cc2nc(C)nc(NC(C)c3ccc(-c4ccc(F)cc4CNC(=O)[C@@H]4CCCN4)s3)c2cc1OC` (stereo partly drawn) [Example 314, N-[2-(5-{1-[(6,7-dimethoxy-2-methylquinazolin-4-yl)amino]ethyl}thiophen-2-yl)-5-fluorobenzyl]-L-prolinamide], for which the half-maximal inhibitory concentration (IC50) was above 20 µM in experiment [1] and 0.104 µM in experiment [2].

Take `COc1cc2nc(C)nc(N[C@H](C)c3cccc(-c4ccn[nH]4)c3)c2cc1OC` [Example 337, 6,7-dimethoxy-2-methyl-N-{(1R)-1-[3-(1H-pyrazol-5-yl)phenyl]ethyl}quinazolin-4-amine]: the IC50 in experiment [1] is above 20 µM; in experiment [2], 0.344 µM.

`COc1cc2nc(C)nc(NC(C)c3ccnc4sccc34)c2cc1OC` (centres unmarked) [Example 331, 6,7-dimethoxy-2-methyl-N-[1-(thieno[2,3-b]pyridin-4-yl)ethyl]quinazolin-4-amine]: the IC50 was above 20 µM in experiment [1] and 0.919 µM in experiment [2].

For the molecule `COc1cc2nc(C)nc(NC(C)c3ccc(-c4ccccc4CN4CC(O)C4)s3)c2cc1OC` (centres unmarked) [Example 312, 1-[2-(5-{1-[(6,7-dimethoxy-2-methylquinazolin-4-yl)amino]ethyl}thiophen-2-yl)benzyl]azetidin-3-ol], the IC50 in experiment [1] is above 20 µM; in experiment [2], 0.0682 µM.

Take `COc1cc2nc(C)nc(NC(C)c3ccc(-c4ccccc4CNCC(=O)N4CCc5ccccc5C4)s3)c2cc1OC` (centres unmarked) [Example 303, 1-(3,4-dihydroisoquinolin-2(1H)-yl)-2-{[2-(5-{1-[(6,7-dimethoxy-2-methylquinazolin-4-yl)amino]ethyl}thiophen-2-yl)benzyl]amino}ethanone]: the results for the concentration for half-maximal inhibition (IC50) in experiment [1] and in experiment [2] were above 20 µM and 0.724 µM, respectively.

As for `COc1cc2nc(C)nc(N[C@H](C)c3cccc(-c4cn[nH]c4C)c3)c2cc1OC` [Example 335, 6,7-dimethoxy-2-methyl-N-{(1R)-1-[3-(5-methyl-1H-pyrazol-4-yl)phenyl]ethyl}quinazolin-4-amine], the concentration for half-maximal inhibition (IC50) is above 20 µM in experiment [1] and 0.145 µM in experiment [2].

Take `COc1cc2nc(C)nc(NC(C)c3ccc(-c4ccccc4CNCC(F)F)s3)c2cc1OC` (centres unmarked) [Example 315, N-{1-[5-(2-{[(2,2-difluoroethyl)amino]methyl}phenyl)thiophen-2-yl]ethyl}-6,7-dimethoxy-2-methylquinazolin-4-amine]: the figures for the IC50 in experiment [1] and in experiment [2] were above 20 µM and 0.777 µM, respectively.

For `COc1cc2nc(C)nc(NC(C)c3cccc4ccsc34)c2cc1OC` (centres unmarked) [Example 15, N-[1-(1-benzothiophen-7-yl)ethyl]-6,7-dimethoxy-2-methylquinazolin-4-amine], the results for the IC50 in experiment [1] and in experiment [2] were above 20 µM and 0.126 µM, respectively.

Turning to `COc1cc2nc(C)nc(N[C@H](C)c3cccc(-c4c(C)n[nH]c4C)c3)c2cc1OC` [Example 334, N-{(1R)-1-[3-(3,5-dimethyl-1H-pyrazol-4-yl)phenyl]ethyl}-6,7-dimethoxy-2-methylquinazolin-4-amine], the IC50 in experiment [1] was above 20 µM; in experiment [2] it was 0.362 µM.

As to `COC(=O)CNCc1ccccc1-c1ccc(C(C)Nc2nc(C)nc3cc(OC)c(OC)cc23)s1` (centres unmarked) [Example 281, methyl N-[2-(5-{1-[(6,7-dimethoxy-2-methylquinazolin-4-yl)amino]ethyl}thiophen-2-yl)benzyl]glycinate], the IC50 in experiment [1] was above 20 µM; in experiment [2], 0.559 µM.

As for `COc1cc2nc(C)nc(NC(C)c3ccc(-c4ccc(CN)s4)s3)c2cc1OC` (centres unmarked) [Example 276, N-{1-[5′-(aminomethyl)-2,2′-bithiophen-5-yl]ethyl}-6,7-dimethoxy-2-methylquinazolin-4-amine], the IC50 in experiment [1] is above 20 µM; in experiment [2], 1.41 µM.

As for `COc1cc2nc(C)nc(NC(C)c3ccc(-c4ccccc4CN4CCC4)s3)c2cc1OC` (centres unmarked) [Example 317, N-[1-{5-[2-(azetidin-1-ylmethyl)phenyl]thiophen-2-yl}ethyl]-6,7-dimethoxy-2-methylquinazolin-4-amine], the concentration for half-maximal inhibition (IC50) is above 20 µM in experiment [1] and 0.076 µM in experiment [2].

With `COc1cc2nc(C)nc(NC(C)c3ccc(-c4ccccc4CN4CCOCC4)s3)c2cc1OC` (centres unmarked) [Example 311, 6,7-dimethoxy-2-methyl-N-[1-{5-[2-(morpholin-4-ylmethyl)phenyl]thiophen-2-yl}ethyl]quinazolin-4-amine], the values for the IC50 in experiment [1] and in experiment [2] were above 20 µM and 0.763 µM, respectively.

In the case of `COc1cc2nc(C)nc(NC(C)c3cc(-c4ccc(F)cc4CN)cs3)c2cc1OC` (centres unmarked) [Example 269, N-[1-{4-[2-(aminomethyl)-4-fluorophenyl]thiophen-2-yl}ethyl]-6,7-dimethoxy-2-methylquinazolin-4-amine], the IC50 in experiment [1] is above 20 µM; in experiment [2], 0.162 µM.

`COc1cc2nc(C)nc(NC(C)c3ccc(-c4ccc(F)cc4CNC(C)=O)s3)c2cc1OC` (centres unmarked) [Example 307, N-[2-(5-{1-[(6,7-dimethoxy-2-methylquinazolin-4-yl)amino]ethyl}thiophen-2-yl)-5-fluorobenzyl]acetamide]: the IC50 in experiment [1] was above 20 µM; in experiment [2], 0.589 µM.

Turning to `COc1cc2nc(C)nc(NC(C)c3ccc(-c4cc(Cl)ccc4CN)s3)c2cc1OC` (centres unmarked) [Example 292, N-[1-{5-[2-(aminomethyl)-5-chlorophenyl]thiophen-2-yl}ethyl]-6,7-dimethoxy-2-methylquinazolin-4-amine], the concentration for half-maximal inhibition (IC50) in experiment [1] is above 20 µM; in experiment [2], 0.0315 µM.

In the case of `COc1cc2nc(C)nc(NC(C)c3ccc(-c4ccccc4CN4CCCC(C(N)=O)C4)s3)c2cc1OC` (centres unmarked) [Example 290, 1-[2-(5-{1-[(6,7-dimethoxy-2-methylquinazolin-4-yl)amino]ethyl}thiophen-2-yl)benzyl]piperidine-3-carboxamide], the results for the IC50 in experiment [1] and in experiment [2] were above 20 µM and 0.176 µM, respectively.

For the molecule `COc1cc2nc(C)nc(NC(C)c3csc(-c4ccccc4CN)c3)c2cc1OC` (centres unmarked) [Example 259, N-[1-{5-[2-(aminomethyl)phenyl]thiophen-3-yl}ethyl]-6,7-dimethoxy-2-methylquinazolin-4-amine], the IC50 is above 20 µM in experiment [1] and 0.402 µM in experiment [2].

For the molecule `COc1cc2nc(C)nc(NC(C)c3cc(C)cc4[nH]ncc34)c2cc1OC` (centres unmarked) [Example 16, 6,7-dimethoxy-2-methyl-N-[1-(6-methyl-1H-indazol-4-yl)ethyl]quinazolin-4-amine], the results for the IC50 in experiment [1] and in experiment [2] were above 20 µM and 3.25 µM, respectively.

With `COc1cc2nc(C)nc(NC(C)c3ccc(-c4ccccc4CN[C@H]4CCN(C)C4=O)s3)c2cc1OC` (stereo partly drawn) [Example 309, (3S)-{[2-(5-{1-[(6,7-dimethoxy-2-methylquinazolin-4-yl)amino]ethyl}thiophen-2-yl)benzyl]amino}-1-methylpyrrolidin-2-one], the IC50 was above 20 µM in experiment [1] and 1.32 µM in experiment [2].

`COc1cc2nc(C)nc(NC(C)c3cc(-c4ccccc4CN)cs3)c2cc1OC` (centres unmarked) [Example 270, N-[1-{4-[2-(aminomethyl)phenyl]thiophen-2-yl}ethyl]-6,7-dimethoxy-2-methylquinazolin-4-amine]: the IC50 in experiment [1] was above 20 µM; in experiment [2], 0.0914 µM.

Broadly, the IC50 is the midpoint of a concentration-inhibition curve.
